Measured values published in US9265189B2, “Method for reducing damage by harmful organisms in corn cultivation” (SUMITOMO CHEMICAL COMPANY, LIMITED, priority 2012, dated 2016).

Legend:
Type in all cases: in vivo
[1] = tested on: Rhopalosiphum padi; assay: Green house cup test, furrow drip treatment, Rhopalosiphum padi on corn (Example 6); settings: insects released 10 days after seeding, counted 7 days after insect releasing, 100×(A−B)/A
Procedure: A plastic cup (diameter 7 cm) having a volume of 390 ml was filled with a soil, a furrow was formed to a depth of 3 cm from the soil surface, the formed furrow was drip-treated with each of water-diluted liquids of a thiamethoxam water soluble powder (using a 10.0% preparation, trade name: Actara Water Soluble Powder, manufactured by Syngenta Japan K.K.), an imidacloprid water dispersible granule (using a 50.0% preparation, trade name: Admire Water dispersible Granule, manufactured by Bayer CropScience K.K.) and a thiacloprid water dispersible granule (using a 30.0% preparation, trade name: Bariard Water Dispersible Granule, manufactured by Bayer CropScience K.K.) so as to achieve the application amount described in Table 6, and then seeded with corn (variety name: Pioneer 32K61, hybrid variety) at a rate of one grain per cup, and the soil on the side of the furrow was gathered together to close the furrow. Corn was grown in a usual green house.
10 days after seeding of corn, 10 insects of Rhopalosiphum padi were released in each cup. This is called a treatment section.
On the other hand, except that a chemical was not applied, corn was grown in a usual green house in the same manner as in the treatment section, and 10 insects of Rhopalosiphum padi were released. This is called a non-chemical-treatment section.
7 days after insect releasing, the number of Rhopalosiphum padi was investigated, and a preventive value was calculated using the following equation. The results are shown in Table 6. preventive value=100×(A−B)/A
A: number of insects during investigation of non-chemical-treatment section
B: number of insects during investigation of treatment section

[2] = tested on: Diabrotica virgifera virgifera and Agriotes lineatus; assay: Field test, lodge rate, imidacloprid and cyprosulfamide in-furrow (Example 10); settings: imidacloprid 120 g/ha together with cyprosulfamide 15 g/ha in-furrow spray 125 L/ha, thiuram-treated seed, 165 days after application; example in present tense
Text: A chemical fertilizer (N:P:K=15:15:15) is applied to the soil surface of a cultivated land at 300 kg/ha, and the cultivated land is then plowed. 7 days after fertilization, for suppressing generation of weeds, the soil surface of the whole cultivated land is spray-treated with a mixed liquid containing thiencarbazone-methyl and isoxaflutole, each of which being a herbicide, at 150 L/ha so that the application amounts of thiencarbazone-methyl and isoxaflutole are 9.2 g/ha and 23 g/ha, respectively. 21 days after fertilization, using a pneumatic seeder (disk furrow opener) equipped with a power sprayer, a cultivated land is ditched at intervals of 75 cm to a depth of 3 cm from the soil surface, and the furrow is seeded with corn (Zea Mays; hybrid variety). The furrow is seeded at intervals of 20 cm using, as a seed of corn, one treated with thiuram. A seeding density of corn is 70000 seeds/ha. […] 165 days after application of the aqueous suspension of imidacloprid, the number of plants of corn lodged due to damage by Diabrotica virgifera virgifera and Agriotes lineatus in the furrows of the treatment section and the non-treatment section, for which the number of plants of corn germinated is investigated, is investigated, a lodge rate is calculated in accordance with the following equation, and then an average lodge rate for the four investigation sections is determined.

[3] = tested on: Diabrotica virgifera virgifera and Agriotes lineatus; assay: Field test, lodge rate, imidacloprid in-furrow, herbicides plus cyprosulfamide on soil (Example 8); settings: imidacloprid 120 g/ha in-furrow spray 125 L/ha, thiuram-treated seed, 165 days after application; example in present tense
Text: A chemical fertilizer (N:P:K=15:15:15) is applied to the soil surface of a cultivated land at 300 kg/ha, and the cultivated land is then plowed. 7 days after fertilization, for suppressing generation of weeds, the soil surface of the whole cultivated land is spray-treated with a mixed liquid containing thiencarbazone-methyl and isoxaflutole, each of which being a herbicide, and cyprosulfamide which is a safener at 150 L/ha so that the application amounts of thiencarbazone-methyl, isoxaflutole and cyprosulfamide are 9.2 g/ha, 23 g/ha and 15 g/ha, respectively. 21 days after fertilization, using a pneumatic seeder (disk furrow opener) equipped with a power sprayer, a cultivated land is ditched at intervals of 75 cm to a depth of 3 cm from the soil surface, and the furrow is seeded with corn (Zea Mays; hybrid variety). […] 165 days after application of the aqueous suspension of imidacloprid, the number of plants of corn lodged due to damage by Diabrotica virgifera virgifera and Agriotes lineatus in the furrows of the treatment section and the non-treatment section, for which the number of plants of corn germinated is investigated, is investigated, a lodge rate is calculated in accordance with the following equation, and then an average lodge rate for the four investigation sections is determined.

N#C/N=C1\SCCN1Cc1ccc(Cl)nc1 [Thiacloprid]
Preventive value ([1]; application amount 20 g/ha): 100
Preventive value ([1]; application amount 200 g/ha): 100

CN1COCN(Cc2cnc(Cl)s2)/C1=N\[N+](=O)[O-] [Thiamethoxam]
Preventive value ([1]; application amount 20 g/ha): 100
Preventive value ([1]; application amount 200 g/ha): 100

O=[N+]([O-])NC1=NCCN1Cc1ccc(Cl)nc1 [Imidacloprid]
Lodge rate compared to non-treatment section [2]: low lodge rate as compared to the non-treatment section
Preventive value ([1]; application amount 20 g/ha): 100
Preventive value ([1]; application amount 200 g/ha): 100
Lodge rate compared to non-treatment section [3]: low lodge rate as compared to the non-treatment section
